Consider ten molecules from patent US6348587B1, “2′-Fluoronucleosides” (Emory University, priority 1998, dated 2002).

SMILES strings stand for the structures. Counter-ions that a name gives are not always drawn.

Series [1] deals with HIV-1 heterodimer p66/51 reverse transcriptase (Human immunodeficiency virus type 1 group M subtype B, UniProt P04585). Kind of series: HIV-1 reverse transcriptase extension assay, r(I)n.(dC)12-18 template-primer.
Description: Extension assays were performed using a r(I)n.(dC)12-18 homopolymer template-primer (Pharmacia, Piscataway, N.J.) and the HIV-1 heterodimer p66/51 reverse transcriptase (RT, Biotechnology General, Rehovat, Israel). The standard reaction mixture (100 μl) contained 100 mM Tris hydrochloride (pH 8.0), 50 mM KCl, 2 mM MgCl2, 0.05 units/ml r(I)n.(dC)12-18, 5 mM DTT, 100 μg/ml Bovine Serum Albumin, and 1 μM ^3H-dCTP (23 Ci/mmol). 3TCTP (0.001-50 μM) was the positive control. Compounds were incubated 1 hr at 37° C. in the reaction mixture with 1 unit HIV-1 RT. The reaction was stopped with the addition of an equal volume of cold 10% TCA/0.05% sodium pyrophosphate and incubated 30 minutes at 4° C. The precipitated nucleic acids were harvested onto fiberglass filter paper using a Packard manual harvester (Meriden, Conn.). The radiolabel uptake in counts per minute (cpm) was determined using a Packard 9600 Direct Beta counter.
The nature of series [2]: Cytotoxicity in Vero cells. The series is classed as cell-based. The conditions noted are these: African green monkey, Vero cells. Here is the method: (§1) Antiviral and cytotoxicity assays: Anti-HIV-1 activity of the compounds is determined in human peripheral blood mononuclear (PBM) cells as described previously (Schinazi, […].; Cannon, D.; Mathis, R.; Lloyd, R. M. Jr.; Peck, […].; St. Clair, M.; Wilson, J.; Furman, P. A.; Painter, G.; Choi, […]. Antimicrob. Agents Chemother. 1992, 36, 2423; Schinazi, […].; Cannon, D.; Xie, […].; Smith, G.; Hahn, E. Antimicrob. Agents Chemother. 1990, 34, 1061). Stock solutions (20-40 mM) of the compounds were prepared in sterile DMSO and then diluted to the desired concentration in complete medium. […] Cells are infected with the prototype HIV-1LAI at a multiplicity of infection of 0.01. Virus obtained from the cell supernatant are quantitated on day 6 after infection by a reverse transcriptase assay using poly(rA)n.oligo(dT)12-18 as template-primer. The DMSO present in the diluted solution (<0.1%) should have no effect on the virus yield. The toxicity of the compounds can be assessed in human PBM, CEM, and Vero cells. The antiviral EC50 and cytotoxicity IC50 is obtained from the concentration-response curve using the median effective method described by Chou and Talalay (Adv. Enzyme Regul. 1984, 22, 27).

Series [3] in a line: Cytotoxicity in uninfected human PBM cells. The format is cell-based. The conditions noted are these: human, mitogen-stimulated uninfected human PBM cells; PMC Cells. Here is the method:
as §1, with “The DMSO present in the diluted solution (<0.1%) should have no effect on the virus yield.” left out, “27). Mitogen stimulated uninfected human PBM cells (3.8×10^5 cells/ml) can be cultured in the presence and absence of drug under similar conditions as those used for the antiviral assay described above. The cells are counted after 6 days using a hemacytometer and the trypan blue exclusion method, as described by Schinazi et al., Antimicrobial Agents and Chemotherapy, 22(3), 499 (1982).” for “27).”

The test system of the next series is HIV-1 (strain LAV). Kind of series: Anti-HIV-1 activity in PHA-stimulated human PBM cells (virus quantitated by reverse transcriptase assay, day 6). The format is cell-based. The note with it: HIV-1 in human PBM cells. The protocol: The ability of nucleosides to inhibit HIV can be measured by various experimental techniques. One technique, described in detail below, measures the inhibition of viral replication in phytohemagglutinin (PHA) stimulated human peripheral blood mononuclear (PBM) cells infected with HIV-1 (strain LAV). The amount of virus produced is determined by measuring the virus-coded reverse transcriptase enzyme. The amount of enzyme produced is proportional to the amount of virus produced.
(§2) Antiviral and cytotoxicity assays: Anti-HIV-1 activity of the compounds is determined in human peripheral blood mononuclear (PBM) cells as described previously (Schinazi, R. F.; McMillan, A.; Cannon, D.; Mathis, R.; Lloyd, R. M. Jr.; Peck, A.; Sommadossi, J.-P.; St. Clair, M.; Wilson, J.; Furman, P. A.; Painter, G.; Choi, W.-B.; Liotta, D. C. Antimicrob. Agents Chemother. 1992, 36, 2423; Schinazi, R. F.; Sommadossi, J.-P.; Saalmann, V.; Cannon, D.; Xie, M.-Y.; Hart, G.; Smith, G.; Hahn, E. Antimicrob. Agents Chemother. 1990, 34, 1061). Stock solutions (20-40 mM) of the compounds were prepared in sterile DMSO and then diluted to the desired concentration in complete medium. […] Cells are infected with the prototype HIV-1LAI at a multiplicity of infection of 0.01. Virus obtained from the cell supernatant are quantitated on day 6 after infection by a reverse transcriptase assay using poly(rA)n.oligo(dT)12-18 as template-primer. The DMSO present in the diluted solution (<0.1%) should have no effect on the virus yield. The toxicity of the compounds can be assessed in human PBM, CEM, and Vero cells. The antiviral EC50 and cytotoxicity IC50 is obtained from the concentration-response curve using the median effective method described by Chou and Talalay (Adv. Enzyme Regul. 1984, 22, 27).
Three-day-old phytohemagglutinin-stimulated PBM cells 10^6 cells/ml) from hepatitis B and HIV-1 seronegative healthy donors are infected with HIV-1 (strain LAV) at a concentration of about 100 times the 50% tissue culture infectious dose (TICD 50) per ml and cultured in the presence and absence of various concentrations of antiviral compounds.
Approximately one hour after infection, the medium, with the compound to be tested (2 times the final concentration in medium) or without compound, is added to the flasks (5 ml; final volume 10 ml).
The cells are exposed to the virus (about 2×10^5 dpm/ml, as determined by reverse transcriptase assay) and then placed in a CO2 incubator. HIV-1 (strain LAV) is obtained from the Center for Disease Control, Atlanta, Ga. The methods used for culturing the PBM cells, harvesting the virus and determining the reverse transcriptase activity are those described by McDougal et al. (J. Immun. Meth. 76, 171-183, 1985) and Spiral et al. (J. Clin. Meth. 25, 97-99, 1987), except that flngizone was not included in the medium (see Schinazi, et al., Antimicrob. Agents Chemother. 32, 1784-1787 (1988); Id., 34:1061-1067 (1990)).
On day 6, the cells and supernatant are transferred to a 15 ml tube and centrifuged at about 900 g for 10 minutes. Five ml of supernatant are removed and the virus concentrated by centrifugation at 40,000 rpm for 30 minutes (Beckman 70.1 Ti rotor). The solubilized virus pellet is processed for determination of the levels of reverse transcriptase. Results are expressed in dpm/ml of sampled supernatant. Virus from smaller volumes of supernatant (1 ml) can also be concentrated by centrifugation prior to solubilization and determination of reverse transcriptase levels.

Another series deals with CEM cells. Kind of series: Cytotoxicity in CEM cells. The series is classed as cell-based, human. The protocol: as §2
The extent of anticancer activity can be easily assessed by assaying the compound according to the procedure below in a CEM cell or other tumor cell line assay. CEM cells are human lymphoma cells (a T-lymphoblastoid cell line that can be obtained from ATCC, Rockville, Md.). […] The toxicity is measured as IC50 micromolar). […] Drug solutions, including cycloheximide as a positive control, are plated in triplicate in 50 μl growth medium at 2 times the final concentration and allowed to equilibrate at 37° C. in a 5% CO2 incubator. Log phase cells are added in 50 μl growth medium to a final concentration of 2.5×10^3 (CEM and SK-MEL-28), 5×10^3 (MMAN, MDA-MB-435s, SKMES-1, DU-145, LNCap), or 1×10^4 (PC-3, MCF-7) cells/well and incubated for 3 (DU-145, PC-3, MMAN), 4 (MCF-7, SK-MEL-28, CEM), or 5 (SK-MES-1, MDA-MB-435s, LNCaP) days at 37° C. under a 5% CO2 air atmosphere. Control wells include media alone (blank) and cells plus media without drug. After growth period, 15 μl of Cell Titer 96 kit assay dye solution (Promega, Madison, Wis.) are added to each well and the plates are incubated 8 hr at 37° C. in a 5% CO2 incubator. Promega Cell Titer 96 kit assay stop solution is added to each well and incubated 4-8 hr in the incubator. Absorbance is read at 570 nm, blanking on the medium-only wells using a Biotek Biokinetics plate reader (Biotek, Winooski, Vt.). Average percent inhibition of growth compared to the untreated control is calculated. IC50, IC90, slope and r value are calculated by the method of Chou and Talalay. Chou T-C, Talalay P. Quantitative analysis of dose-effect relationships: The combined effects of multiple drugs or enzyme inhibitors. Adv Enzyme Regul 1984, 22:27-55.

Another series concerns Vero cells. Kind of series: Cytotoxicity in Vero cells. The series is classed as cell-based. Here is the method:
as §1

For a further series, the system named is PBM cells. Briefly: Cytotoxicity in uninfected human PBM cells. The format is cell-based. The protocol:
as §1, with “The DMSO present in the diluted solution (<0.1%) should have no effect on the virus yield.” left out, “27). Mitogen stimulated uninfected human PBM cells (3.8×10^5 cells/ml) can be cultured in the presence and absence of drug under similar conditions as those used for the antiviral assay described above. The cells are counted after 6 days using a hemacytometer and the trypan blue exclusion method, as described by Schinazi et al., Antimicrobial Agents and Chemotherapy, 22(3), 499 (1982).” for “27).”

Setting [4] is: Human immunodeficiency virus 1, PBMC.

As to `Nc1nc(=O)n(C2C=CC(COP(=O)(O)OP(=O)(O)OP(=O)(O)O)C2)cc1F` (mixture of isomers) [(±)-carbocyclic-D4FC-TP, cis-(±)-Carbocyclic 2′,3′-didehydro-2′,3′-dideoxy-5-fluorocytidine 5′-triphosphate, triethylhydrogenammonium salt], in series [1], the response was half-maximal at 400 nM (EC50).

In turn, `Cc1cn([C@H]2C[C@H](N=[N+]=[N-])[C@@H](CO)O2)c(=O)[nH]c1=O` [AZT, 3′-azido-3′-deoxythymidine, reference compound] gave a half-inhibitory concentration (IC50) in series [2] of 29 µM. In addition, the concentration for half-maximal inhibition (IC50) at 6 days in series [3] was over 100 µM. In the series on HIV-1 (strain LAV) (setting [4]), this molecule came in with an EC50 of 0.004 µM and an EC90 of 0.04 µM.

For the molecule `O=c1ccn([C@H]2O[C@@H](CO)C=C2F)c(=O)[nH]1` [Compound 316, 1-(2,3-Dideoxy-2-fluoro-(α,β)-L-gycero-pent-2-eno-furanosyl)uracil], the half-maximal inhibitory concentration (IC50) in the series with CEM cells, with Vero cells and in the series on PBM cells was over 100 µM in each case. In the series with HIV-1 (strain LAV), the EC50 was over 100 µM. Besides, the EC90 with HIV-1 (strain LAV) was over 100 µM.

Consider `Cc1cn([C@H]2O[C@@H](CO)C=C2F)c(=O)[nH]c1=O` [Compound 318, 1-(2,3-Dideoxy-2-fluoro-(α,β)-L-gycero-pent-2-eno-furanosyl)thymine], for which the 50% inhibitory concentration (IC50) with CEM cells, in the series on Vero cells and with PBM cells was over 100 µM in each case. This molecule returned an EC50 in the series with HIV-1 (strain LAV) of over 100 µM. In the series with HIV-1 (strain LAV), this molecule yielded an EC90 of over 100 µM.

Take `Nc1ccn([C@H]2O[C@@H](CO)C=C2F)c(=O)n1` [Compound 322, 1-(2,3-dideoxy-2-fluoro-β-L-gycero-pent-2-enofuranosyl)cytosine]: the IC50 in the series on CEM cells, in the series on Vero cells and with PBM cells was over 100 µM throughout. In addition, the concentration for a half-maximal effect (EC50) in the series on HIV-1 (strain LAV) was determined as 0.51 µM. The molecule also came in with a concentration for an effect of 90% (EC90) in the series with HIV-1 (strain LAV) of 4.3 µM.

With `Nc1ccn([C@@H]2O[C@@H](CO)C=C2F)c(=O)n1` [Compound 323, 1-(2,3-dideoxy-2-fluoro-α-L-gycero-pent-2-enofuranosyl)cytosine], the IC50 in the series with CEM cells, in the series on Vero cells and in the series with PBM cells was over 100 µM each time. For the same molecule, in the series with HIV-1 (strain LAV), the EC50 is over 100 µM. The EC90 in the series on HIV-1 (strain LAV) was over 100 µM.

On to `Nc1ncnc2c1ncn2[C@H]1O[C@@H](CO)C=C1F` [Compound 335, 9-(2,3-dideoxy-2-fluoro-β-L-gycero-pent-2-enofuranosyl)adenine], for which the IC50 in the series on CEM cells, in the series with Vero cells and with PBM cells was over 100 µM each time. The same molecule had an EC50 with HIV-1 (strain LAV) of 1.5 µM. In the series with HIV-1 (strain LAV), the EC90 was 15.1 µM.

`Nc1ncnc2c1ncn2[C@@H]1O[C@@H](CO)C=C1F` [Compound 336, 9-(2,3-dideoxy-2-fluoro-α-L-gycero-pent-2-enofuranosyl)adenine]: the IC50 with CEM cells, with Vero cells and in the series on PBM cells was over 100 µM each time. Besides, the 50% effective concentration (EC50) in the series on HIV-1 (strain LAV) was 47.6 µM. This molecule showed an EC90 with HIV-1 (strain LAV) of 332 µM.

As to `O=c1[nH]cnc2c1ncn2[C@H]1O[C@@H](CO)C=C1F` [Compound 337, 9-(2,3-dideoxy-2-fluoro-β-L-gycero-pent-2-enofuranosyl)hypoxanthine], the IC50 in the series with CEM cells, with Vero cells and in the series on PBM cells was over 100 µM in each case. In the series with HIV-1 (strain LAV), this molecule registered an EC50 of over 100 µM. In the series with HIV-1 (strain LAV), this molecule gave a concentration for an effect of 90% (EC90) of over 100 µM.

On to `O=c1[nH]cnc2c1ncn2[C@@H]1O[C@@H](CO)C=C1F` [Compound 338, 9-(2,3-dideoxy-2-fluoro-α-L-gycero-pent-2-enofuranosyl)hypoxanthine], for which, in the series with CEM cells, the IC50 is over 100 µM. Also, the concentration for half-maximal inhibition (IC50) with PBM cells was over 100 µM. In the series on HIV-1 (strain LAV), this molecule returned an EC50 of over 100 µM and an EC90 of over 100 µM.

Broadly, the EC50 is the concentration that produces a half-maximal response. Read a low EC50 as greater potency. The IC50 is the midpoint of a concentration-inhibition curve. A high value points to weaker potency. One may read the EC90 as the concentration needed for an effect of 90%. The low end stands for greater potency, the high end for weaker potency.
